Measurements reported in PubChem BioAssay (NCI).
Where “and” joins values, the source holds several entries; their conditions need not be identical. Equal entries are not always repeated.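 Growth conditions: 96-well plates. Treatment: test compound, 48 hours, 5 concentrations. Analysis: linear interpolation between bracketing concentrations; unreached endpoints set to highest concentration. Abbreviation: GI50, concentration required for 50% inhibition of growth. TGI: total growth inhibition.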

Assays:
Assay in all cases: NCI anticancer screen, dose series, 48 h
BT-549 breast = tested on: BT-549 breast
DU-145 prostate = tested on: DU-145 prostate
HCT-15 colon = tested on: HCT-15 colon
HL-60(TB) leukemia = tested on: HL-60(TB) leukemia
HOP-92 NSCLC = tested on: HOP-92 NSCLC
HT29 colon = tested on: HT29 colon
NCI-H460 lung = tested on: NCI-H460 lung
NCI-H522 lung = tested on: NCI-H522 lung
NCI/ADR-RES ovarian = tested on: NCI/ADR-RES ovarian
OVCAR-8 ovarian = tested on: OVCAR-8 ovarian
RXF 393 renal = tested on: RXF 393 renal
SF-295 CNS = tested on: SF-295 CNS
SK-MEL-2 melanoma = tested on: SK-MEL-2 melanoma
SK-MEL-28 melanoma = tested on: SK-MEL-28 melanoma
SNB-75 CNS = tested on: SNB-75 CNS
UO-31 renal = tested on: UO-31 renal
HCT-116 colon = tested on: HCT-116 colon
MDA-N = tested on: MDA-N

SMILES | TGI (BT-549 breast) [µM] | TGI (DU-145 prostate) [µM] | TGI (HCT-15 colon) [µM] | TGI (HL-60(TB) leukemia) [µM] | TGI (HOP-92 NSCLC) [µM] | TGI (HT29 colon) [µM] | TGI (NCI-H460 lung) [µM] | TGI (NCI-H522 lung) | TGI (NCI/ADR-RES ovarian) [µM] | TGI (OVCAR-8 ovarian) [µM] | TGI (RXF 393 renal) [µM] | TGI (SF-295 CNS) [µM] | TGI (SK-MEL-2 melanoma) [µM] | TGI (SK-MEL-28 melanoma) [µM] | TGI (SNB-75 CNS) [µM] | TGI (UO-31 renal) [µM] | TGI (HCT-116 colon) [µM] | TGI (MDA-N) [µM] | GI50 (HL-60(TB) leukemia) | GI50 (NCI-H522 lung)
CN(C)C(=O)OC(Cn1cncn1)(Cn1cncn1)c1ccc(Cl)cc1Cl | > 100 | > 100 | > 100 | > 100 | > 100 | > 100 | > 100 | > 100 µM | > 100 | > 100 | > 100 | > 100 | > 100 | > 100 | > 100 | > 100 |  |  |  | 
COc1ccc(CN=C(N)N)c2ccccc12 |  | > 100 | > 100 | 91 |  | > 100 |  | > 100 µM | > 100 | > 100 | > 100 | 36.7 | 86.9 | 86.5 | 55.2 | 87.9 | > 100 | > 100 |  | 
CC(=O)N=C1N(/C=C2\C(=O)Oc3ccccc3C2=O)C(=O)/C(=C/c2ccc(NC(C)=O)cc2)N1C |  | > 100 | > 100 | > 100 |  | > 100 | > 100 | > 100 µM | > 100 | > 100 | > 100 | > 100 | > 100 | > 100 | > 100 |  | > 100 | > 100 |  | 
COc1ccc(C2C3COc4ccccc4C3=NN2c2ccccc2)cc1 (stereo unspecified) | > 100 |  | > 100 |  | > 100 | > 100 | > 100 | > 100 µM | > 100 | > 100 | > 100 | > 100 | > 100 |  | > 100 | > 100 | > 100 | > 100 |  | 
C=C1C(=O)O[C@H]2[C@@H](O)[C@H](C)CCC[C@]3(C)O[C@H]3CC[C@@]3(C)O[C@@H]3C[C@@H]12 | 4.5 | 12.9 | 4.74 | 2.03 |  | 12.1 |  | 2.85 µM | 19 | 13.4 | 7.13 | 15.6 | 16.6 | 8.91 | 15.2 | 12.4 | 6.52 |  |  | 
O=C(Cc1ccccc1)Nn1c(-c2ccccc2)nc2ccccc2c1=O | > 100 | > 100 |  | > 100 | > 100 | > 100 | > 100 | > 100 µM |  | > 100 | > 100 | > 100 |  | > 100 | > 100 | > 100 | > 100 | > 100 |  | 
FC1C2=C(SC1(F)F)C1CCC2C1 (stereo unspecified) | > 100 | > 100 | > 100 | > 100 | > 100 | > 100 | > 100 | > 100 µM | > 100 | > 100 | > 100 | > 100 | > 100 |  | > 100 | > 100 | > 100 |  |  | 
O=C1OC(=O)c2cc(S(=O)(=O)c3ccc4c(c3)C(=O)OC4=O)ccc21 | > 100 | > 100 | > 100 |  |  | > 100 | > 100 | > 100 µM | > 100 | > 100 | > 100 | > 100 | > 100 | > 100 | > 100 | > 100 | > 100 | > 100 |  | 
CC(C)(C)C(=O)OC12/C(=N/O)CCCCCC1c1ccccc12 (stereo unspecified) |  |  | 33 | 45.5 |  | 26 | 32.3 | 35 µM |  | 33.4 | 33.9 | 29.2 | 37.3 | 32.8 | 27.8 | 31.7 | 27.5 |  |  | 
CN1C(=O)C(=O)c2cc3c(c4c2c1cc1ccccc14)OCO3 |  |  | > 100 | > 100 | > 100 | > 100 | > 100 | > 100 µM |  | > 100 | 96.8 | > 100 | > 100 | > 100 | > 100 | > 100 | > 100 |  |  | 
Clc1ccc(C(SCc2ccccc2)SCc2ccccc2)cc1 |  | > 10 | > 10 | > 10 | > 10 | > 10 | > 10 | > 10 µM | > 10 | > 10 | > 10 | > 10 | > 10 | > 10 | > 10 | > 10 | > 10 | > 10 |  | 
Cc1ccc(/C=N/Nc2ccc3ccccc3n2)s1 | 68.7 |  | > 100 | > 100 | 78.3 | 44 |  | 77.8 µM | > 100 | > 100 | > 100 | 38.4 | > 100 | 55.9 | > 100 | > 100 | 24 | 29.2 |  | 
N#Cc1c(-c2ccccc2)[nH]c(=O)n(C2OC(CO)C(O)C(O)C2O)c1=O (stereo unspecified) | > 100 | > 100 | > 100 | > 100 | > 100 | > 100 | > 100 | 63.5 µM and > 100 µM | > 100 | > 100 | > 100 | > 100 | > 100 | > 100 | > 100 | > 100 | > 100 |  | 47.4 µM and > 100 µM | 27.6 µM and > 100 µM
COC(=O)c1cnc(Cl)cn1 | > 100 | > 100 | 38.5 | > 100 | > 100 | > 100 | > 100 | 5.33 µM | > 100 | > 100 |  | > 100 | > 100 | > 100 | > 100 | 36.9 | > 100 |  |  | 
CC(=O)OC[C@@H](OC(C)=O)[C@H](OC(C)=O)[C@@H]1OC(C)(C)O[C@@H]1C1SCCCS1 | > 100 | > 100 |  |  |  |  | > 100 | > 100 µM |  | > 100 | > 100 | > 100 | > 100 | > 100 | > 100 | > 100 | > 100 | > 100 |  | 
